According to US5298621A, “Oligopeptide derivatives of ipoxantine endowed with immunomodulating activity and pharmaceutical compositions containing same” (Sigma-Tau Industrie Farmaceutiche Riunite S.p.A., priority 1990, dated 1994):

Tests used:
[1] = system: plaque-forming cells (PFC) in the spleen of SRBC-immunized mice; assay: Primary antibody production (Jerne test) in the spleen of SRBC immunized mice; assay type: in vivo
Procedure: Test 1 Assessment of the effect of ST 657 and ST 789 on the primary antibody production (Jerne test) in the spleen of SRBC (Sheep Red Blood Cells) immunized mice.
Male B6 D2 F1 mice (Charles River, Italy) aged 7-8 weeks (6 animals per group) were used. In this test, the animals were examined separately.
The compounds were administered i.p. at the doses of 2.5 and 25 mg/kg (single administration) the same day of immunization (Table 1) or, at the dose of 2.5 mg/kg/day (repeated administrations), at days -2, 0 and +2 (immunization at day 0) (Table 2).
The experimental procedure has been described by Jerne, N.K. et al, Transpl. Rev., 18, 130 (1974). In particular, the animals were immunized by i.p. administrations of a SRBC suspension (1×10^7 cells/mouse in 0.2 mL of sterile saline).
5 days following treatment, the spleens were aseptically excised from the sacrificed animals.
The concentration of the splenocytes obtained from the spleen was adjusted to 1×10^7 cells/mL. Aliquots of 0.1 mL of suspension were mixed with warm agar-Hank's (2 mL) and 10% SRBC in PBS buffer (0.2 mL), seeded in Petri dishes and incubated at 37° C. for 60 minutes (samples tested in triplicates). Following addition of complement (2 mL of guinea pig serum diluted 1:10 in Tris buffer), Petri dishes were further incubated at 37° C. for 30 minutes. In the presence of complement, the antibody-secreting cells of splenocytes extracted from the spleens of SRBC-immunized mice cause a hemolytic reaction. This reaction brings about the formation of lytic plaques in the samples.
The results obtained are expressed as follows: […]
(a) number of plaque-forming cells (PFC) out of 10^6 cells;
(b) number of plaque-forming cells in the whole spleen.
The data obtained are processed with Dunnett's test (Biostatistics in Pharmacology, vol. II, Pergamon Press) to assess the statistical significance of differences recorded between groups of treated and control animals.

[2] = system: Sarcoma S 180 cells; assay: Protective effect in S 180 Sarcoma-bearing mice; assay type: in vivo; conditions: for Dead/total / MST (mean survival time calculated by the median and the first interquartile range): 0.25 mg/kg i.p. from day +1 to day +10; for Weight control (x ± S.E.): 0.25 mg/kg/day i.p. day +1 to +10, in g (unit assumed); for number of surviving animals at the indicated day / animals survived (footnote, end of observation): group of 9, 0.25 mg/kg/day; for animals survived (footnote, end of observation): after day +26
Procedure: (§1) Test 4 Assessement of the protective effect of ST 657 and ST 789 in tumor-bearing mice.
(§2) Male DBA/2 mice and male CD1 mice (Charles River), both aged 6 weeks, were used.
CD1 mice were inoculated i.p. with 1×10^3 Sarcoma S 180 cells (ATCC, loc. cit.) in 0.1 mL of Hank's medium.
(§3) The compounds were adminstered i.p. in sterile saline (0.25 mg/kg/day) from day +1 to day +10 (tumor transplantation at day 0).
(§4) Also the body weight of the animals was monitored, from day 0 to day +16 for the L 1210 leukemia-bearing mice, and from day 0 to day +21 for the S 180 sarcoma-bearing mice.
(§5) Monitoring of body weight was conducted in order to evaluate the evolution of the neoplastic process. Compounds activity was assessed as Mean Survival Time (MST).

[3] = system: rat granulocytes; assay: "In vitro" chemotactic activity of rat granulocytes (modified Boyden chamber); assay type: cell-based; conditions: for "in vitro" chemotaxis (μ ± S.E.): 10 mcg/mL, granulocytes of untreated rats; for chemotactic activity of rat granulocytes versus the control (in words): in vitro and in vitro-ex vivo
Procedure: Test 3 Assessment of the "in vitro" and "in vitro-ex vivo" effect of ST 657 and ST 789 on the chemotactic activity of rat granulocytes.
Male Fisher-344 rats aged about 3 months were used (6-8 animals for each experimental group).
The compounds were tested "in vitro", 10 mcg/mL, and "in vitro-ex vivo" following administration of 25 mg/kg/day from day -5 to day -1 (taking of blood sample at day 0).
The experimental procedure is described by Cates, L. K. et al (1987), Modified Boyden chamber method of measuring polymorphonuclear leukocyte chemotaxis, Leukocyte Chemotaxis, Raven Press, N.Y. 67.
Blood samples were collected from animals sacrificed by decapitation. Following passage through heparinized gauze, blood was diluted (1:1) with dextran (1.5% in saline) and allowed to sediment for 90 minutes.
The concentration of the granulocytes, collected from blood via known techniques, was adjusted to 2×10^6 cells/mL in Hank's medium. They were then seeded on 3 μMillipore filters which were placed in migration chambers.
These chambers were prepared using Hank's medium to evaluate the spontaneous migration, and casein (2 mL of solution, at the concentration 5 mg/mL) to evaluate the induced migration.
In performing the "in vitro" test, granulocytes of untreated animals were used, to which the compounds had been added before seeding thereof on the Millipore filters preparation of migration chambers.
Following incubation of the samples at 37° C. and 5% CO2 for 60 minutes, the filters were stained and mounted on microscope slides.
Microscopic examination of samples versus control allows the distance (in μm) run by the two most forward granulocytes in the framed field to be determined. Granulocyte migration is determined by calculating the mean value of 10 readings performed as a whole on two filters per sample.
The results obtained were statistically processed with Student's "t" test (Biostatistics in Pharmacology, loc, cit.).

[4] = system: Leukemia L 1210 cells; assay: Protective effect in L 1210 Leukemia-bearing mice; assay type: in vivo; conditions: for Dead/total / MST (mean survival time calculated by the median and the first interquartile range): 0.25 mg/kg i.p. from day +1 to day +10; for Weight control (x ± S.E.): 0.25 mg/kg/day day +1 to +10, in g (unit assumed); for number of surviving animals at the indicated day: 0.25 mg/kg/day
Procedure: as §1, §2
DBA/2 mice were inoculated i.p. with 1×10^5 Leukemia L 1210 cells (ATCC-American Type Culture Collection-Cell Lines & Hybridomas, 5th Ed., 1985) in 0.1 mL of Hank's medium.
as §3, §4, §5

[5] = 25 mg/kg i.p., single administration on the day of immunization
[6] = 2,5 mg/kg i.p., single administration on the day of immunization
[7] = 2,5 mg/kg/day i.p. at days -2, 0, +2 (immunization at day 0)

Compound	PFC/10^6 cells (x and ranges of variation) [1, 5]	PFC/spleen (x and ranges of variation) [1, 5]	Dead/total [2]	MST (mean survival time calculated by the median and the first interquartile range) [2]	Weight control (x ± S.E.) ([2]; Day 0)	Weight control (x ± S.E.) ([2]; Day 2)	Weight control (x ± S.E.) ([2]; Day 4)	Weight control (x ± S.E.) ([2]; Day 7)	Weight control (x ± S.E.) ([2]; Day 9)	Weight control (x ± S.E.) ([2]; Day 11)	Weight control (x ± S.E.) ([2]; Day 14)	Weight control (x ± S.E.) ([2]; Day 16)	Weight control (x ± S.E.) ([2]; Day 21)	number of surviving animals at the indicated day ([2]; Day 21)	animals survived (footnote, end of observation) [2]	"in vitro" chemotaxis (μ ± S.E.) [3] [μ]	chemotactic activity of rat granulocytes versus the control (in words) [3]	Dead/total [4]	MST (mean survival time calculated by the median and the first interquartile range) [4]	Weight control (x ± S.E.) ([4]; Day 0)	also measured
N-5-(ipoxantin-9-yl) pentyloxycarbonyl glycyl L-aspartate disodium salt [ST 657]	422 (403-443) PFC/10^6 cells	61276 (54294-63323) PFC/spleen	5/9	26.0 (20.5-≥47.0)	22.2 ± 0.3	22.0 ± 0.6	23.9 ± 0.4	26.1 ± 0.4	27.3 ± 0.5	28.6 ± 0.6	31.2 ± 1.0	31.4 ± 1.1	32.9 ± 1.0	6	4	54.8 ± 3.05	effective in enhancing the chemotactic activity	10/10	15.5 (13.0-17.0)	18.2 ± 0.5	PFC/10^6 cells (x and ranges of variation) [1, 6]: 393 (368-420) PFC/10^6 cells; PFC/spleen (x and ranges of variation) [1, 6]: 62356 (59939-64871) PFC/spleen; PFC/10^6 cells (x and ranges of variation) [1, 7]: 416 (372-465) PFC/10^6 cells; PFC/spleen (x and ranges of variation) [1, 7]: 67195 (59781-75529) PFC/spleen; increase of PFC number with respect to control (in words) ([1]; comparison with ST 789): more active than ST 789; MST / protection in tumor-bearing mice (in words) ([2]; comparison with ST 789, S 180 and L 1210 tables): higher MST and/or a better protection than ST 789; Weight control (x ± S.E.) ([4]; Day 2): 18.2 ± 0.5; Weight control (x ± S.E.) ([4]; Day 4): 18.8 ± 0.5; Weight control (x ± S.E.) ([4]; Day 7): 20.1 ± 0.4; Weight control (x ± S.E.) ([4]; Day 9): 21.7 ± 0.6; Weight control (x ± S.E.) ([4]; Day 11): 23.9 ± 0.8; number of surviving animals at the indicated day ([4]; Day 14): 6; Weight control (x ± S.E.) ([4]; Day 14): 23.1 ± 0.6; number of surviving animals at the indicated day ([4]; Day 16): 3; Weight control (x ± S.E.) ([4]; Day 16): 22.4 ± 0.6
N=C(N)NCCC[C@H](NC(=O)OCCCCCn1cnc2c(=O)[nH]cnc21)C(=O)O [ST 789, N-5-(ipoxantin-9-yl) pentyloxycarbonylarginine, reference compound]	339 (318-360) PFC/10^6 cells	58137 (54505-62010) PFC/spleen	8/9	22.0 (20.5-≥25.5)	21.8 ± 0.5	22.4 ± 0.5	24.3 ± 0.6	25.8 ± 0.7	26.9 ± 0.8	29.2 ± 1.2	33.1 ± 2.0	34.0 ± 2.0	32.8 ± 2.2	5	One	38.8 ± 4.47	totally inactive	9/9	14.0 (14.0-15.0)	18.2 ± 0.3	Weight control (x ± S.E.) ([4]; Day 2): 18.0 ± 0.4; Weight control (x ± S.E.) ([4]; Day 4): 19.1 ± 0.3; Weight control (x ± S.E.) ([4]; Day 7): 20.1 ± 0.4; Weight control (x ± S.E.) ([4]; Day 9): 21.8 ± 0.4; Weight control (x ± S.E.) ([4]; Day 11): 24.0 ± 0.4; number of surviving animals at the indicated day ([4]; Day 14): 3; Weight control (x ± S.E.) ([4]; Day 14): 22.7 ± 0.9; number of surviving animals at the indicated day ([4]; Day 16): 1; Weight control (x ± S.E.) ([4]; Day 16): 22.5
